Laboratory results taken from ChEMBL document CHEMBL5608141, “Identification of compartment-specific drug sensitivities in CRC organoid-stroma co-cultures” (2024).
Non-standard residues stand in square brackets, D forms with d. Residues, ends and D or L forms follow the SMILES beside them. Arg(Me) = CNC(=N)NCCC[C@H](N)C(=O)O; d4Pal = N[C@H](Cc1ccncc1)C(=O)O; azaGly = NNC(=O)O

Columns and labels:
Format in all cases: functional, Homo sapiens
Parameters in all cases: dose or concentration left out as unconfirmed
[1] = tested on: Colon cancer organoid; test: Identification of compartment-specific drug sensitivities in O20 CRC organoid-stroma F20 CAF co-cultures. Organoid is transduced with Lucferase2-P2A-EGFP lentivirus, fibroblast with Renilla-dsRed lentivirus. Dual-Glo Luciferase assay is used to report viability data.
[2] = tested on: Colon cancer organoid; test: Identification of compartment-specific drug sensitivities in O06 CRC organoid-stroma F06 CAF co-cultures. Organoid is transduced with Lucferase2-P2A-EGFP lentivirus, fibroblast with Renilla-dsRed lentivirus. Dual-Glo Luciferase assay is used to report viability data.
[3] = tested on: Colon cancer organoid; test: Identification of compartment-specific drug sensitivities in O14 CRC organoid-stroma F14 CAF co-cultures. Organoid is transduced with Lucferase2-P2A-EGFP lentivirus, fibroblast with Renilla-dsRed lentivirus. Dual-Glo Luciferase assay is used to report viability data.
[4] = Transduced with Lucferase2-P2A-EGFP lentivirus
[5] = Transduced with Renilla-dsRed lentivirus

Row | SMILES | Cell Viability [1, 4] | Cell Viability [1, 5] | Cell Viability [2, 4] | Cell Viability [2, 5] | Cell Viability [3, 4] | Cell Viability [3, 5]
1 | CN1CCN(Cc2ccc(Nc3ncc(Cl)c(Nc4ccccc4S(=O)(=O)N(C)C)n3)cc2)CC1 [DUBERMATINIB] | 1.051% | 16.1981% | 0.5937% | 0.7151% | 1% | 1.414%
2 | Cn1cc(C2=C(c3cn(C4CCN(Cc5ccccn5)CC4)c4ccccc34)C(=O)NC2=O)c2ccccc21 [ENZASTAURIN] | 54.6044% | 78.6109% | 65.6638% | 92.7001% | 80.1065% | 85.9175%
3 | C[C@H](NC(=O)Nc1cc2[nH]ncc2c(CO)n1)c1ccccn1 [ERKi-NC] | 108.541% | 124.126% | 94.8975% | 86.1568% | 81.1185% | 100.943%
4 | C[C@@H](NC(=O)Nc1cc2[nH]ncc2c(CO)n1)c1ccccc1 [ERKi] | 50.0756% | 135.339% | 82.7933% | 113.572% | 56.1161% | 76.4372%
5 | O=C(Nc1nc2cccc(-c3ccc(CN4CCS(=O)(=O)CC4)cc3)n2n1)C1CC1 [FILGOTINIB] | 113.419% | 86.0918% | 100.525% | 92.8016% | 113.804% | 94.0881%
6 | CN(C(=O)c1ccccc1)c1cc(N(C)c2ccc3c(c2)CCc2ccc(C(=O)NCCN4CCOCC4)cc2C3=O)ccc1F [FM-743] | 87.6379% | 153.202% | 67.0526% | 69.6878% | 122.056% | 99.7372%
7 | O=C(NCCN1CCOCC1)c1ccc2c(c1)C(=O)c1ccc(Nc3ccc(F)c(NC(=O)c4ccccc4)c3)cc1CC2 [FS-694] | 66.3241% | 119.038% | 67.8661% | 67.282% | 121.73% | 92.4198%
8 | CC(C)(C)OC(=O)N1CCCC1CNC1CCC(c2cc(F)ccc2F)(S(=O)(=O)c2ccc(Cl)cc2)CC1 (centres undefined) [GSI-NC] | 93.8933% | 100.789% | 96.8575% | 78.4593% | 112.017% | 95.5535%
9 | CC(=O)Nc1c(F)cc(C(=O)N[C@H]2CC[C@H](O)CC2)cc1O[C@@H](C)c1ccccc1 [GSK046] | 118.485% | 118.66% | 141.493% | 157.689% | 96.2623% | 124.481%
10 | CNC(=O)c1cc(C(=O)NC2CC2)cn(Cc2ccccc2)c1=O [GSK620] | 93.0444% | 100.747% | 111.223% | 132.009% | 84.0371% | 91.229%
11 | COCc1nc2cnc3cc(-c4c(C)noc4C)c(OC[C@H]4CCNC4)cc3c2n1[C@H](C)c1ccccc1 [GSK778] | 27.6505% | 143.906% | 81.063% | 183.714% | 41.3417% | 133.991%
12 | Cc1cc2c(-c3ccco3)cnc(N[C@@H]3CCN(C)C[C@H]3C(=O)NC3CCCCC3)c2[nH]c1=O [GSK789] | 34.1492% | 125.83% | 76.5976% | 134.369% | 52.4382% | 127.289%
13 | Cc1cc2c(-c3ccco3)cnc(N[C@H]3CCN(C)C[C@@H]3C(=O)NC3CCCCC3)c2[nH]c1=O [GSK791] | 101.663% | 116.18% | 113.813% | 153.556% | 100.549% | 110.493%
14 | CNC(=O)c1cc(C(=O)N[C@H]2[C@@H]3COC[C@@H]32)cc2c1O[C@@H](CF)[C@@H]2c1ccccc1 [GSK943] | 107.286% | 108.354% | 83.6271% | 130.888% | 96.5907% | 102.587%
15 | CNC(=O)c1cc(C(=O)N[C@H]2[C@@H]3COC[C@@H]32)cc2c1O[C@H](CF)[C@H]2c1ccccc1 [GSK973] | 97.9061% | 135.509% | 110.942% | 170.924% | 99.5313% | 122.198%
16 | C[C@@H](Oc1cc(-n2cnc3ccc(CN4CCN(C)CC4)cc32)sc1C(N)=O)c1ccccc1C(F)(F)F [GSK-461364] | 35.9092% | 141.481% | 8.2073% | 127.3% | 14.2355% | 96.4779%
17 | O=C(O)c1ccc(-c2c[nH]c3ncc(-c4ccccc4)cc23)cc1C1CCCC1 [GSK-650394] | 93.9419% | 129.576% | 92.5027% | 110.19% | 112.026% | 70.7781%
18 | CCn1cc(-c2ccnc3[nH]c(-c4cccc(CN(C)C)c4)cc23)c(-c2ccc(NC(=O)N(C)C)cc2)n1 [GSK-1070916] | 9.494% | 207.056% | 8.589% | 116.692% | 13.7383% | 103.854%
19 | COc1ccc(COc2ccc(Cc3cnc(N)nc3N)cc2OC)cc1 [GW632580X] | 200.298% | 84.9331% | 84.8428% | 83.7807% | 144.194% | 102.086%
20 | COc1cc2ncn(-c3cc(OCc4ccccc4C(F)(F)F)c(C(N)=O)s3)c2cc1OC [GW843682X] | 89.1479% | 152.214% | 4.781% | 182.458% | 3.29% | 110.017%
21 | CCOc1cc2ncc(C#N)c(Nc3ccc(OCc4cccc(F)c4)c(Cl)c3)c2cc1NC(=O)/C=C/CN(C)C [HKI-357] | 50.6947% | 47.1207% | 16.8896% | 39.6819% | 38.7389% | 28.7857%
22 | CCN1CCN(c2ccc(Nc3cc(N(C)C(=O)Nc4c(Cl)c(OC)cc(OC)c4Cl)ncn3)cc2)CC1 [INFIGRATINIB] | 101.232% | 52.242% | 0.6967% | 125.024% | 55.6946% | 110.833%
23 | Cc1c(Oc2ccc(F)cc2)c(OC(C)C)nn1-c1ccc(C2CC2)cn1 [IPP/CNRS-A019] | 91.0165% | 118.396% | 92.46% | 90.9232% | 67.4569% | 79.6967%
24 | COCCc1ccc(-c2c(C)nc3c(N4CCOCC4)ccnn23)cn1 [JNJ-42396302] | 126.017% | 102.271% | 121.378% | 128.188% | 94.533% | 84.3411%
25 | COc1nc2ccc([C@@](O)(c3ccccc3)C3CCN(C(C)=O)CC3)cc2c(Cl)c1Cc1ccc(-n2cccn2)cc1 [JNJ-54119936] | 65.101% | 118.395% | 97.0001% | 121.742% | 99.4009% | 84.202%
26 | CC(=O)Nc1ncc(CN2CCC[C@H](Cc3cc(C)nc(C)c3)C2)s1 [JNJ-65355394] | 88.5022% | 103.797% | 116.935% | 172.928% | 108.182% | 61.6526%
27 | CC(=O)Nc1nc(CN2CCC[C@H](Cc3cc(C)nc(C)c3)C2)cs1 [JNJ-73924149] | 90.3874% | 105.251% | 82.0789% | 131.954% | 104.416% | 83.6177%
28 | N#CN1CC[C@@H](C(=O)Nc2nc3c(s2)CN(C(=O)CN=[N+]=[N-])CC3)C1 [JYQ88] | 64.1943% | 84.2967% | 72.1963% | 58.5555% | 68.7487% | 88.1605%
29 | CNC(=N)NCCC[C@H](NC(=O)[C@H](CC(C)C)NC(=O)NNC(=O)[C@H](Cc1ccccc1)NC(=O)[C@H](CO)NC(=O)[C@H](CC(N)=O)NC(=O)[C@@H](Cc1ccncc1)NC(=O)[C@H](N)Cc1ccc(O)cc1)C(=O)N[C@@H](Cc1ccccc1)C(N)=O [KISS1-305] (H-[dY][d4Pal]NSF[azaGly]L[Arg(Me)]F-NH2) | 118.72% | 125.679% | 113.14% | 104.585% | 102.723% | 96.9932%
